Assay results as given in the supplement of paper PMC10307832.

Assays:
Experiment in all cases: relative viability (nuclei count vs DMSO), 5 days (fraction); higher = more cells survive
[1] = compound: C/C(=N\NC(=S)N1CCC1)/C2=CC=CC=N2 + CC(=O)c1c(C)c2cnc(Nc3ccc(N4CCNCC4)cn3)nc2n(C2CCCC2)c1=O [Palbociclib] (partner 0.5 µM)
Outline: (§1)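 Each reported value is a median over duplicate plates. It expresses relative viability: treated-well nuclei count divided by vehicle-well nuclei count. Lung cancer cell lines in 1536-well plates were dosed by pin tool a day after seeding, alone with one drug or with a fixed anchor-drug dose plus five library-drug doses (not always all listed) in √10 steps, and nuclei were counted after 5 days.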

[2] = compound: C/C(=N\NC(=S)N1CCC1)/C2=CC=CC=N2 + Cc1nc(Nc2ncc(C(=O)Nc3c(C)cccc3Cl)s2)cc(N2CCN(CCO)CC2)n1 [Dasatinib] (partner 0.075 µM)
Outline: as §1

[3] = compound: C/C(=N\NC(=S)N1CCC1)/C2=CC=CC=N2 + CC(C)C[C@H](NC(=O)[C@H](Cc1ccccc1)NC(=O)c1cnccn1)B(O)O [Bortezomib] (partner 0.002 µM)
Outline: as §1

[4] = compound: C/C(=N\NC(=S)N1CCC1)/C2=CC=CC=N2 + CCNC(=O)c1noc(-c2cc(C(C)C)c(O)cc2O)c1-c1ccc(CN2CCOCC2)cc1 [Luminespib] (partner 0.01 µM)
Outline: as §1

| Cell Line | relative viability ([1]; first compound 0.05 µM) | relative viability ([1]; first compound 0.1581 µM) | relative viability ([1]; first compound 0.5 µM) | relative viability ([1]; first compound 1.581 µM) | relative viability ([1]; first compound 5 µM) | relative viability ([2]; first compound 0.05 µM) | relative viability ([2]; first compound 0.1581 µM) | relative viability ([2]; first compound 0.5 µM) | relative viability ([2]; first compound 1.581 µM) | relative viability ([2]; first compound 5 µM) | relative viability ([3]; first compound 0.05 µM) | relative viability ([3]; first compound 0.1581 µM) | relative viability ([3]; first compound 0.5 µM) | relative viability ([3]; first compound 1.581 µM) | relative viability ([3]; first compound 5 µM) | relative viability ([4]; first compound 0.05 µM) | relative viability ([4]; first compound 0.1581 µM) | relative viability ([4]; first compound 0.5 µM) | relative viability ([4]; first compound 1.581 µM) | relative viability ([4]; first compound 5 µM) |
| --- | --- | --- | --- | --- | --- | --- | --- | --- | --- | --- | --- | --- | --- | --- | --- | --- | --- | --- | --- | --- |
| HCC-78 | 0.355 | 0.368 | 0.273 | 0.329 | 0.323 | 0.264 | 0.256 | 0.268 | 0.181 | 0.157 | 0.509 | 0.257 | 0.178 | 0.153 | 0.232 | – | – | – | – | – |
| NCI-H2085 | 0.275 | 0.303 | 0.261 | 0.279 | 0.273 | 0.209 | 0.219 | 0.27 | 0.259 | 0.229 | 0.33 | 0.298 | 0.323 | 0.269 | 0.262 | 0.236 | 0.274 | 0.281 | 0.234 | 0.211 |
| PC-14 | 0.0312 | 0.0553 | 0.052 | 0.0451 | 0.0402 | 0.0371 | 0.0372 | 0.0336 | 0.023 | 0.0224 | 0.114 | 0.106 | 0.0629 | 0.0768 | 0.0781 | 0.104 | 0.126 | 0.112 | 0.0879 | 0.095 |
| NCI-H2342 | 0.276 | 0.283 | 0.274 | 0.253 | 0.255 | 0.297 | 0.283 | 0.258 | 0.249 | 0.284 | – | – | – | – | – | 0.261 | 0.279 | 0.23 | 0.245 | 0.238 |
| A-427 | 0.194 | 0.224 | 0.205 | 0.174 | 0.181 | 0.144 | 0.124 | 0.132 | 0.0986 | 0.117 | 0.171 | 0.147 | 0.126 | 0.117 | 0.114 | 0.153 | 0.147 | 0.139 | 0.155 | 0.155 |
| H3255 | 0.259 | 0.278 | 0.304 | 0.259 | 0.266 | 0.355 | 0.347 | 0.258 | 0.225 | 0.392 | 0.227 | 0.276 | 0.268 | 0.171 | 0.195 | 0.21 | 0.262 | 0.232 | 0.176 | 0.302 |
| HCC-44 | 0.976 | 0.886 | 0.563 | 0.556 | 0.451 | – | – | – | – | – | 0.335 | 0.234 | 0.221 | 0.19 | 0.239 | 0.326 | 0.307 | 0.283 | 0.32 | 0.242 |
| NCI-H1734 | 0.14 | 0.132 | 0.169 | 0.131 | 0.129 | 0.152 | 0.12 | 0.148 | 0.112 | 0.089 | 0.228 | 0.205 | 0.174 | 0.123 | 0.107 | 0.123 | 0.105 | 0.116 | 0.118 | 0.117 |
| NCI-H2228 | 0.134 | 0.167 | 0.127 | 0.0641 | 0.315 | 0.133 | 0.121 | 0.135 | – | 0.0925 | 0.169 | 0.295 | 0.161 | 0.119 | 0.179 | 0.168 | 0.119 | 0.129 | – | 0.158 |
| ABC-1 | 0.344 | 0.412 | 0.328 | 0.239 | 0.275 | 0.213 | 0.306 | 0.195 | 0.193 | 0.225 | 0.296 | 0.273 | 0.233 | 0.276 | 0.283 | 0.224 | 0.264 | 0.291 | 0.145 | 0.316 |
| COR-L23 | 0.0993 | 0.12 | 0.0934 | 0.0924 | 0.0839 | 0.102 | 0.095 | 0.0719 | 0.0707 | 0.0937 | 0.12 | 0.139 | 0.114 | 0.077 | 0.0874 | 0.102 | 0.0984 | 0.0928 | 0.0829 | 0.0974 |
| NCI-H358 | 0.0943 | 0.103 | 0.106 | 0.07 | 0.0834 | 0.0836 | 0.0975 | 0.102 | 0.0651 | 0.092 | – | – | – | – | – | 0.0782 | 0.118 | 0.144 | 0.108 | 0.0871 |
| EBC-1 | – | – | – | – | – | – | – | – | – | – | 0.177 | 0.226 | 0.169 | 0.162 | 0.174 | – | – | – | – | – |
| NCI-H596 | – | – | – | – | – | 0.234 | 0.29 | 0.245 | 0.224 | 0.225 | 0.518 | 0.309 | 0.237 | 0.233 | 0.276 | 0.433 | 0.673 | 0.246 | 0.222 | 0.235 |
| SK-MES-1 | 0.221 | 0.2 | 0.2 | 0.174 | 0.177 | 0.145 | 0.155 | 0.133 | 0.107 | 0.126 | – | – | – | – | – | 0.169 | 0.155 | 0.175 | 0.152 | 0.189 |
| NCI-H1703 | – | – | – | – | – | – | – | – | – | – | 0.0746 | 0.0958 | 0.166 | 0.134 | 0.171 | – | – | – | – | – |
| NCI-H1944 | 0.253 | 0.3 | 0.166 | 0.148 | 0.129 | 0.139 | 0.151 | 0.153 | 0.128 | 0.127 | – | – | – | – | – | 0.527 | 0.265 | 0.143 | 0.124 | 0.113 |
| NCI-H1563 | – | – | – | – | – | 0.394 | 0.462 | 0.408 | 0.229 | 0.312 | 0.664 | 0.701 | 0.611 | 0.574 | 0.553 | 0.464 | 0.435 | 0.472 | 0.429 | 0.467 |
| NCI-H1395 | 0.33 | 0.333 | 0.329 | 0.366 | 0.381 | 0.27 | 0.362 | 0.315 | 0.29 | 0.326 | – | – | – | – | – | 0.305 | 0.338 | 0.332 | 0.349 | 0.337 |
| NCI-H2170 | 0.37 | 0.378 | 0.17 | 0.131 | 0.121 | 0.164 | 0.167 | 0.145 | 0.125 | 0.161 | – | – | – | – | – | 0.689 | 0.25 | 0.136 | 0.18 | 0.151 |
